The results in this text go back to PubChem BioAssay AID252 (DTP/NCI, 2004).

Several values for one entry are separate records, joined by “and”; a condition that tells them apart may be missing. Identical values can stand only once. Toxic doses and inconclusive results are not listed.

The assay deals with BDF1 mice, intracerebral L1210 leukemia, survival T/C. As to the kind of experiment: NCI In Vivo Anticancer Drug Screen. Data for tumor model L1210 Leukemia (intracerebral) in B6D2F1 (BDF1) mice. Conditions: higher = longer survival. In a few lines:
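Survival measured in treated and vehicle-control tumour-bearing mice; value = T/C.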

In the case of `O=NN(CCCl)C(=O)NCCCl`, the T/C by setting is: (endpoint: mean survival time, dose: 2.0 mg/kg/injection, schedule: Q01DX009 (ip), vehicle: saline) 122 % of control; (endpoint: mean survival time, dose: 3.0 mg/kg/injection, schedule: Q04DX003 (ip), vehicle: saline) 151 % of control; (endpoint: mean survival time, dose: 3.7 mg/kg/injection, schedule: Q01DX001 (ip), vehicle: other) 114 % of control; (endpoint: mean survival time, dose: 4.0 mg/kg/injection, schedule: Q01DX009 (ip), vehicle: other) 174 % of control; (endpoint: mean survival time, dose: 4.0 mg/kg/injection, schedule: Q01DX009 (ip), vehicle: saline) 154 % of control; (endpoint: mean survival time, dose: 5.0 mg/kg/injection, schedule: Q01DX001 (ip), vehicle: other) 117 % of control. Moreover, the T/C runs as follows: (endpoint: mean survival time, dose: 5.0 mg/kg/injection, schedule: Q01DX001 (ip), vehicle: saline) 121 % of control; (endpoint: mean survival time, dose: 6.0 mg/kg/injection, schedule: Q04DX003 (ip), vehicle: saline) 173 % of control; (endpoint: mean survival time, dose: 7.0 mg/kg/injection, schedule: Q01DX001 (ip), vehicle: other) 119 % of control; (endpoint: mean survival time, dose: 8.0 mg/kg/injection, schedule: Q01DX005 (ip), vehicle: saline) 175 % of control; (endpoint: mean survival time, dose: 8.0 mg/kg/injection, schedule: Q01DX009 (ip), vehicle: other) 225 % of control; (endpoint: mean survival time, dose: 8.0 mg/kg/injection, schedule: Q01DX009 (ip), vehicle: saline) 197 % of control. Moreover, the T/C is, setting by setting: (endpoint: mean survival time, dose: 8.4 mg/kg/injection, schedule: Q01DX001 (ip), vehicle: saline) 117 % of control and 122 % of control; (endpoint: mean survival time, dose: 9.75 mg/kg/injection, schedule: Q01DX001 (ip), vehicle: saline) 150 % of control and 153 % of control and 173 % of control; (endpoint: mean survival time, dose: 10.0 mg/kg/injection, schedule: Q01DX001 (oral), vehicle: saline) 120 % of control; (endpoint: mean survival time, dose: 11.0 mg/kg/injection, schedule: Q04DX003 (ip), vehicle: saline + alcohol) 203 % of control; (endpoint: mean survival time, dose: 12.0 mg/kg/injection, schedule: Q04DX003 (ip), vehicle: saline) 250 % of control; (endpoint: mean survival time, dose: 13.0 mg/kg/injection, schedule: Q01DX001 (ip), vehicle: saline) 219 % of control and 284 % of control. For the same compound, the T/C (endpoint: mean survival time, dose: 14.0 mg/kg/injection, schedule: Q01DX001 (sc), vehicle: saline) was 186 % of control; the T/C (endpoint: mean survival time, dose: 15.0 mg/kg/injection, schedule: Q01DX001 (ip), vehicle: other) is 153 % of control and 155 % of control; the T/C (endpoint: mean survival time, dose: 15.0 mg/kg/injection, schedule: Q01DX001 (ip), vehicle: saline) was 175 % of control; the T/C (endpoint: mean survival time, dose: 16.0 mg/kg/injection, schedule: Q01DX009 (ip), vehicle: other) was 123 % of control; the T/C (endpoint: mean survival time, dose: 16.0 mg/kg/injection, schedule: Q01DX009 (ip), vehicle: saline) was 103 % of control; the T/C (endpoint: mean survival time, dose: 19.5 mg/kg/injection, schedule: Q01DX001 (ip), vehicle: saline) was 197 % of control and 202 % of control and 226 % of control. Besides, the T/C runs as follows: (endpoint: mean survival time, dose: 19.7 mg/kg/injection, schedule: Q01DX001 (oral), vehicle: saline) 217 % of control and 250 % of control (2×); (endpoint: mean survival time, dose: 20.0 mg/kg/injection, schedule: Q01DX001 (ip), vehicle: other) 174 % of control; (endpoint: mean survival time, dose: 20.0 mg/kg/injection, schedule: Q01DX001 (oral), vehicle: saline) 159 % of control and 172 % of control; (endpoint: mean survival time, dose: 22.0 mg/kg/injection, schedule: Q04DX003 (ip), vehicle: saline + alcohol) 276 % of control; (endpoint: mean survival time, dose: 23.0 mg/kg/injection, schedule: Q01DX001 (sc), vehicle: saline) 228 % of control; (endpoint: mean survival time, dose: 24.0 mg/kg/injection, schedule: Q01DX001 (ip), vehicle: saline) 236 % of control. Also, the T/C runs as follows: (endpoint: mean survival time, dose: 25.0 mg/kg/injection, schedule: Q01DX001 (ip), vehicle: saline) 263 % of control and 357 % of control; (endpoint: mean survival time, dose: 25.0 mg/kg/injection, schedule: Q01DX001 (oral), vehicle: saline) 261 % of control; (endpoint: mean survival time, dose: 29.0 mg/kg/injection, schedule: Q01DX001 (ip), vehicle: saline) 266 % of control and 297 % of control; (endpoint: mean survival time, dose: 30.0 mg/kg/injection, schedule: Q01DX001 (ip), vehicle: saline) 225 % of control and 440 % of control; (endpoint: mean survival time, dose: 31.0 mg/kg/injection, schedule: Q01DX001 (ip), vehicle: other) 246 % of control and 269 % of control; (endpoint: mean survival time, dose: 39.0 mg/kg/injection, schedule: Q01DX001 (sc), vehicle: saline) 241 % of control. For the same compound, the T/C is 269 % of control and 387 % of control and 405 % of control (endpoint: mean survival time, dose: 39.5 mg/kg/injection, schedule: Q01DX001 (oral), vehicle: saline); 333 % of control (endpoint: mean survival time, dose: 40.0 mg/kg/injection, schedule: Q01DX001 (ip), vehicle: other); 87 % of control (endpoint: mean survival time, dose: 44.0 mg/kg/injection, schedule: Q04DX003 (ip), vehicle: saline + alcohol); 296 % of control (endpoint: mean survival time, dose: 48.0 mg/kg/injection, schedule: Q01DX001 (ip), vehicle: saline); 150 % of control (endpoint: mean survival time, dose: 50.0 mg/kg/injection, schedule: Q01DX001 (ip), vehicle: saline); 238 % of control (endpoint: mean survival time, dose: 50.0 mg/kg/injection, schedule: Q01DX001 (oral), vehicle: saline). Also, the T/C was 112 % of control (endpoint: mean survival time, dose: 60.0 mg/kg/injection, schedule: Q01DX001 (ip), vehicle: saline); 117 % of control (endpoint: mean survival time, dose: 62.0 mg/kg/injection, schedule: Q01DX001 (ip), vehicle: other); 162 % of control (endpoint: mean survival time, dose: 65.0 mg/kg/injection, schedule: Q01DX001 (sc), vehicle: saline); 172 % of control and 175 % of control (endpoint: mean survival time, dose: 79.0 mg/kg/injection, schedule: Q01DX001 (oral), vehicle: saline).

Turning to `CN(C)CC(=O)c1ccc(O)c(O)c1`, the T/C is 101 % of control (endpoint: median survival time, dose: 100.0 mg/kg/injection, schedule: Q01DX005 (ip), vehicle: saline); 101 % of control (endpoint: median survival time, dose: 200.0 mg/kg/injection, schedule: Q01DX005 (ip), vehicle: saline); 98 % of control (endpoint: median survival time, dose: 400.0 mg/kg/injection, schedule: Q01DX005 (ip), vehicle: saline); 113 % of control (endpoint: median survival time, dose: 800.0 mg/kg/injection, schedule: Q01DX005 (ip), vehicle: saline).

As to `COc1ccc2c(Nc3ccc(NS(C)(=O)=O)cc3)c3ccccc3nc2c1`, the T/C (endpoint: mean survival time, dose: 6.25 mg/kg/injection, schedule: Q01DX009 (ip), vehicle: saline) is 106 % of control; the T/C (endpoint: mean survival time, dose: 6.25 mg/kg/injection, schedule: Q01DX009 (sc), vehicle: saline) was 104 % of control; the T/C (endpoint: mean survival time, dose: 12.5 mg/kg/injection, schedule: Q01DX009 (ip), vehicle: saline) was 102 % of control; the T/C (endpoint: mean survival time, dose: 12.5 mg/kg/injection, schedule: Q01DX009 (sc), vehicle: saline) is 100 % of control; the T/C (endpoint: mean survival time, dose: 25.0 mg/kg/injection, schedule: Q01DX009 (sc), vehicle: saline) was 106 % of control; the T/C (endpoint: mean survival time, dose: 50.0 mg/kg/injection, schedule: Q01DX009 (sc), vehicle: saline) is 88 % of control.

Turning to `O=NN(CCCl)C(=O)Nc1ccc(NC(=O)N(CCCl)N=O)cc1`, the T/C (endpoint: mean survival time, dose: 44.0 mg/kg/injection, schedule: Q01DX009 (ip), vehicle: carboxymethylcellulose (CMC)) was 186 % of control; the T/C (endpoint: mean survival time, dose: 67.0 mg/kg/injection, schedule: Q01DX009 (ip), vehicle: carboxymethylcellulose (CMC)) is 181 % of control; the T/C (endpoint: mean survival time, dose: 100.0 mg/kg/injection, schedule: Q01DX009 (ip), vehicle: carboxymethylcellulose (CMC)) is 160 % of control; the T/C (endpoint: mean survival time, dose: 109.0 mg/kg/injection, schedule: Q01DX001 (ip), vehicle: carboxymethylcellulose (CMC)) was 119 % of control and 124 % of control; the T/C (endpoint: mean survival time, dose: 225.0 mg/kg/injection, schedule: Q01DX009 (ip), vehicle: carboxymethylcellulose (CMC)) was 94 % of control; the T/C (endpoint: mean survival time, dose: 264.0 mg/kg/injection, schedule: Q01DX001 (ip), vehicle: carboxymethylcellulose (CMC)) is 168 % of control. The T/C (endpoint: mean survival time, dose: 366.0 mg/kg/injection, schedule: Q01DX001 (ip), vehicle: carboxymethylcellulose (CMC)) was 168 % of control and 182 % of control; the T/C (endpoint: mean survival time, dose: 400.0 mg/kg/injection, schedule: Q01DX001 (ip), vehicle: carboxymethylcellulose (CMC)) is 181 % of control; the T/C (endpoint: mean survival time, dose: 550.0 mg/kg/injection, schedule: Q01DX001 (ip), vehicle: carboxymethylcellulose (CMC)) is 155 % of control and 167 % of control; the T/C (endpoint: mean survival time, dose: 600.0 mg/kg/injection, schedule: Q01DX001 (ip), vehicle: carboxymethylcellulose (CMC)) was 172 % of control; the T/C (endpoint: mean survival time, dose: 900.0 mg/kg/injection, schedule: Q01DX001 (ip), vehicle: carboxymethylcellulose (CMC)) was 190 % of control; the T/C (endpoint: mean survival time, dose: 1350.0 mg/kg/injection, schedule: Q01DX001 (ip), vehicle: carboxymethylcellulose (CMC)) was 173 % of control.

Take `CN(N=O)C(=O)Nc1ccc(F)cc1`: the T/C is, setting by setting: (endpoint: mean survival time, dose: 75.0 mg/kg/injection, schedule: Q01DX001 (ip), vehicle: carboxymethylcellulose (CMC)) 101 % of control; (endpoint: mean survival time, dose: 150.0 mg/kg/injection, schedule: Q01DX001 (ip), vehicle: carboxymethylcellulose (CMC)) 103 % of control.

For `CC(C)(Cc1ccccc1)NC(=O)N(CCCl)N=O`, the T/C by setting is: (endpoint: mean survival time, dose: 375.0 mg/kg/injection, schedule: Q01DX001 (ip), vehicle: other) 122 % of control; (endpoint: mean survival time, dose: 500.0 mg/kg/injection, schedule: Q01DX001 (ip), vehicle: other) 114 % of control.
